Data reported in patent US10959968B2, “Methods for treating c-Met-dependent cancers” (Board of Supervisors of Louisiana State University and …, priority 2016, dated 2021).

What was measured:
[1] = tested on: MDA-MB231 spheroids; assay: 3D spheroid growth, IncuCyte; type: cell-based, human; settings: 10 micromolar, results not shown
Experimental: FIG. 9. (A). MDA-MB231 cells were grown in 10% FBS DMEM. Cells were collected after trypsinization and resuspended in phenol-red free DMEM with 10% FBS. Cells were labeled with CellTracker Red (Life Technologies) for 5 minutes. After labeling cells were washed with PBS and transfer into 96-well Corning 7007 ULA round bottom plates at 1,000 cells/well in 100 μl phenol-red free media with 10% FBS and 5% Matrigel. […] Spheroids were grown at 37° C. and 5% CO2 in IncuCyte ZOOM (Essen Bioscience). Images were acquired every 4 h for a period of 72 h post-treatment. The data were expressed as fold increase in spheroids size at the end of the treatment using the “average red object area in the well” as determined by the IncuCyte software analysis.
MDA-MB231 spheroids were all allowed to form and treated with compounds for up to 72 hours. Images were captured using the Incucyte platform.

[2] = tested on: DU145 human prostate cancer cells (pMet, pAkt, pErk); assay: Western blot of HGF-induced signaling in prostate cancer cells; type: cell-based; settings: 30 min pretreatment, 30 min HGF
Experimental: FIG. 4. A) Effect of HVS treatment on HGF-induced c-Met activation in human breast cancer cells using Western Blot analysis. Treatment with HVS caused a significant, dose-responsive inhibition of HGF-induced c-Met phosphorylation in MDA-MB-231, MCF-7, and BT-474 mammary tumor cells with no effect on total c-Met levels after treatment for 72 h, as compared to their respective vehicle-treated control groups. The visualization of β-tubulin was used as a loading control. (B) Effect of HVS on HGF-induced c-Met activation and its downstream mitogenic signaling in DU145 human prostate cancer cells, as compared to vehicle-treated control group, using Western Blot analysis. Cells were pre-treated for 30 minutes with either HVS at 0.1, 0.3, 1, and 5 μM or (−)-oleocanthal at 5, 10, and 20 μM doses in serum-free 0.4-media. 33 ng/mL HGF was then added for 30 minutes. Whole cell lysates were collected and assayed by Western Blot. The visualization of α-tubulin was used as a loading control. Representative Western Blots from each experiment are shown, N=3.
DU145 prostate tumor cells were pretreated for 30 minutes with the indicated compounds. Following pretreatment, cells were pulsed for thirty minutes with HGF, cell lysates were prepared and western blot analysis was performed to identify pMet, pAkt, pErk and tubulin.

[3] = tested on: DU145 spheroids; assay: 3D spheroid growth, IncuCyte; type: cell-based, human; settings: 10 micromolar, 72 hours
Experimental: FIG. 9B: DU145 cells were grown in 10% FBS DMEM. Cells were collected after trypsinization and resuspended in phenol-red free DMEM with 10% FBS. Cells were labeled with Cell-Tracker Red (Life Technologies) for 5 minutes. After labeling cells were washed with PBS and transfer into 96-well Corning 7007 ULA round bottom plates at 1,000 cells/well in 100 μl phenol-red free media with 10% FBS and 5% Matrigel. […] Spheroids were grown at 37° C. and 5% CO2 in IncuCyte ZOOM (Essen Bioscience). Images were acquired every 4 h for a period of 72 h post-treatment and software analysis was design to identify the red object in the well. The data were expressed as fold increase in spheroids size at the end of the treatment using the “average red object area in the well” as determined by the IncuCyte software analysis. FIG. 9C: Visually representative spheroids that are quantitated in FIG. 9B.
To determine the effectiveness of these compounds under 3D growth conditions which more accurately predict effectiveness of new drugs in humans, DU145 spheroids were formed and allowed to grow for 72 hours. Images were recorded every 4 hours using the Incucyte platform. […] Compounds 9 and 10, at 10 micromolar reduced spheroid growth by about 50 percent (not shown).

| Compound | effect on spheroid growth [1] | pAkt signaling [2] | pMet induction [2] | reduction of spheroid growth [3] | HGF-induced (Met dependent) signaling [2] |
| --- | --- | --- | --- | --- | --- |
| COc1cc(CCOC(=O)/C=C/c2cc(OC)c(O)c(OC)c2)ccc1N [Compound 9, (E)-4-amino-3-methoxyphenethyl 3-(4-hydroxy-3,5-dimethoxyphenyl)-acrylate] | effective | did attenuate | did not lower | about 50% |  |
| COc1cc(/C=C/C(=O)OCCc2ccc(N)nc2)cc(OC)c1O [Compound 10, (E)-2-(6-aminopyridin-3-yl)ethyl 3-(4-hydroxy-3,5-dimethoxyphenyl)acrylate] | effective |  |  | about 50% | appeared to increase |
